# Results published in paper PMC5073322, “Novel Natural Product-like Caged Xanthones Bearing a Carbamate Moiety Exhibit Antitumor Potency and Anti-Angiogenesis Activity In vivo” (Scientific Reports, 2016).
# Where two headings read alike, the source gives them in different places.
# Assays:
# MDA-MB-231 = test: MTT antiproliferative assay, MDA-MB-231
# Experimental: (§2) The inhibition of tumour cell growth was measured by a modified tetrazolium (MTT) salt assay, as previously described[39]. Cells were cultured in a 96-well plate and treated with culture medium alone or different concentrations of the compounds. The cells were incubated for 72 h, and then, the MTT assay reagent was added. After a 4 h incubation, the formazan product was quantitated at 570 nm. The IC50 values (the concentrations that gave rise to 50% inhibition of cell viability) were calculated using GraphPad Prism 6 using a variable slope (four parameters).
# HCT116 = test: MTT antiproliferative assay, HCT116
# Experimental: as §2
# A549/taxol = test: MTT antiproliferative assay, Taxol-resistant A549; type: cell-based; conditions: for IC50: 72 h, Taxol-resistant A549
# Experimental: as §2
# Water solubility by HPLC = type: physicochemical; conditions: for solubility: thermodynamic from solid
# Excerpt: The physicochemical characteristics of compounds directly determine their potential drug-like properties. Assessing a compound’s physicochemical properties before performing in vivo evaluations can guide further studies and minimize the time and cost associated with drug discovery. Therefore, parallel to the in vivo study, these solubilities of these compounds in water were experimentally measured using high-performance liquid chromatography (HPLC). Based on the results of full wave scanning, 290 nm was chosen as the maximum absorption wavelength for HPLC detection.
# (§1) A HPLC system with an ultraviolet (UV) detector was used to detect the solubility of the compounds. The optimal wavelength was 290 nm. Ethanol/water (85:15) was an efficient eluent at a flow rate of 0.5 mL/min. The compounds were stirred in deionized water overnight to maximize the retention of the compounds in solution. Then, the solutions were filtered and the supernatant was used as a fluid sample for HPLC detection. The permeability (Pe) of some of the compounds was tested with the help of a standard PAMPA (pION), as previously reported. PAMPA was performed on a PAMPA Explorer instrument (pION, Inc., Woburn, MA) with the PAMPA Explorer command software (Version 3.7.4.1). The compounds were diluted to 10 mM with the system solution buffer (pH 7.4). Then, 150 μL of the diluted compound solution was transferred to a UV plate, and the UV spectrum was collected and used as a reference. Then, paint the membrane with 5 μL of gastrointestinal tract (GIT) lipid. The acceptor chamber was filled with 200 μL of acceptor solution buffer, and the donor chamber was filled with 200 μL of diluted compound solution. The PAMPA sandwich was assembled and left at 25 °C for 4 h. The UV spectra (240–500 nm) from the donor and the acceptor were collected. The permeability coefficient was calculated with the PAMPA Explorer Command software (Version 3.7.4.1) based on the area under the curve (AUC) of the reference plate, the donor plate, and the acceptor plate. The permeability coefficient of the compound was tested for four times, and the data are shown as the average values. Ketoprofen (4.5×10^−6 cm/s) and propranolol (112.8×10^−6 cm/s) were used as the standards in this assay.
# HepG2 = test: MTT antiproliferative assay, HepG2
# Experimental: as §2
# A549 = test: MTT antiproliferative assay, A549
# Experimental: as §2
# A549/cisplatin = test: MTT antiproliferative assay, cisplatin-resistant A549; type: cell-based
# Experimental: as §2
# [1] = Parallel artificial membrane permeability assay (PAMPA); type: in vitro ADME; conditions: for permeability relative to DDO-6101 and GA: PAMPA, different pH values (Fig. 5); for permeability coefficient (Pe): PAMPA standards, 25 °C, 4 h
# Experimental: Permeability is another important property that reflects the ability of molecules to diffuse through cell membranes. The permeability coefficients were determined using a standard parallel artificial membrane permeability assay (PAMPA) on a PAMPA Explorer instrument (Pion, Inc., MA, USA)[34].
# as §1, with “The compounds were diluted to 10 mM with the system solution buffer (pH 7.4).” left out
# [2] = Homo sapiens, MDA-MB-231, 72 h, read-out: IC50 MDA-MB-231
# [3] = Homo sapiens, HCT-116, 72 h, read-out: IC50 HCT116
# [4] = deionized water, stirred overnight, HPLC 290 nm, read-out: S, water solubility
# [5] = Homo sapiens, HepG2, 72 h, read-out: IC50 HepG2
# [6] = Homo sapiens, A549, 72 h, read-out: IC50 A549
# [7] = Homo sapiens, MTT, 72 h, read-out: IC50 A549/cisplatin
# [8] = Homo sapiens, MDA-MB-231, 72 h, read-out: IC50 MDA-MB-231, MTT, 72 h
# [9] = read-out: IC50 HCT116, MTT, 72 h
# [10] = deionized water, stirred overnight, HPLC 290 nm
# [11] = read-out: IC50 HepG2, MTT, 72 h
# [12] = Homo sapiens, A549, 72 h, read-out: IC50 A549, MTT, 72 h
# [13] = Homo sapiens, A549, 72 h, read-out: IC50 A549/cisplatin, MTT, 72 h
# [14] = Homo sapiens, HCT-116, 72 h, read-out: IC50 HCT116, MTT, 72 h
# [15] = read-out: IC50 A549/cisplatin, MTT, 72 h
# [16] = A549/Taxol, read-out: IC50 A549/taxol, MTT, 72 h
# [17] = water, deionized water, stirred overnight, HPLC 290 nm, read-out: S, water solubility
# [18] = Homo sapiens, HepG2, 72 h, read-out: IC50 HepG2, MTT, 72 h
Compound,IC50 (MDA-MB-231; [2]) [nM],IC50 (HCT116; [3]) [nM],"IC50 (A549/taxol; MTT, read-out: IC50 A549/taxol) [nM]",solubility (Water solubility by HPLC; [4]) [µM],IC50 (HepG2; [5]) [nM],IC50 (A549; [6]) [nM],IC50 (A549/cisplatin; [7]) [nM],also measured
CC(C)=CCC12OC(C)(C)C3CC(C=C4C(=O)c5c(OC(=O)N(CCO)CCO)cccc5OC431)C2=O (stereo not drawn) [Compound 8j],6200 ± 110,4140 ± 50,4250 ± 700,60,5210 ± 10,10240 ± 100,3780 ± 110,–
CC(C)=CCC12OC(C)(C)C3CC(C=C4C(=O)c5c(OC(=O)N6CCC(N7CCCCC7)CC6)cccc5OC431)C2=O (stereo not drawn) [Compound 8l],–,–,–,–,–,–,–,"permeability relative to DDO-6101 and GA [1]: improved the permeability; IC50 (MDA-MB-231; [8]): 880 ± 50 nM; IC50 (HCT116; [9]): 2490 ± 330 nM; fold higher activity against the resistant A549 cell line than A549 (A549/taxol; Taxol-resistant and cisplatin-resistant A549 versus A549): 10–15 fold; IC50 (A549/taxol; read-out: IC50 A549/taxol, MTT): 610 ± 40 nM; S, water solubility (Water solubility by HPLC; [10]): 80 µM; IC50 (HepG2; [11]): 340 ± 270 nM; IC50 (A549; [12]): 10000 ± 2100 nM; IC50 (A549/cisplatin; [13]): 980 ± 130 nM"
CC(C)=CCC12OC(C)(C)C3CC(C=C4C(=O)c5c(OC(=O)N6CCN(C)CC6)cccc5OC431)C2=O (stereo not drawn) [Compound 8m],–,–,–,–,–,–,–,"IC50 (MDA-MB-231; [8]): 760 ± 90 nM; IC50 (HCT116; [14]): 8150 ± 700 nM; IC50 (A549/taxol; read-out: IC50 A549/taxol, MTT): 1100 ± 50 nM; S, water solubility (Water solubility by HPLC; [10]): 640 µM; IC50 (HepG2; [11]): 1360 ± 710 nM; IC50 (A549; [12]): 9970 ± 2460 nM; IC50 (A549/cisplatin; [15]): 380 ± 70 nM"
CCN(CC)C(=O)Oc1cccc2c1C(=O)C1=CC3CC4C(C)(C)OC(CC=C(C)C)(C3=O)C14O2 (stereo not drawn) [Compound 8b],470 ± 70,2870 ± 70,680 ± 80,30,1880 ± 140,2860 ± 20,1460 ± 90,permeability relative to DDO-6101 and GA [1]: improved the permeability
CC(C)=CCC12OC(C)(C)C3CC(C=C4C(=O)c5c(OC(=O)N6CCN(C)CC6)cccc5OC431)C2=O (stereo not drawn) [Compound 8o],–,–,–,–,–,–,–,"IC50 (MDA-MB-231; read-out: IC50 MDA-MB-231, MTT, 72 h): 660 ± 70 nM; IC50 (HCT116; [9]): 9820 ± 680 nM; IC50 (A549/taxol; read-out: IC50 A549/taxol, MTT): 510 ± 50 nM; S, water solubility (Water solubility by HPLC; [10]): >40000 µM; IC50 (HepG2; [11]): 2800 ± 210 nM; IC50 (A549; read-out: IC50 A549, MTT, 72 h): 14900 ± 3600 nM; IC50 (A549/cisplatin; [15]): 1140 ± 140 nM"
CC(C)=CCC12OC(C)(C)C3CC(C=C4C(=O)c5c(OC(=O)N(C(C)C)C(C)C)cccc5OC431)C2=O (stereo not drawn) [Compound 8k],9100 ± 120,4490 ± 770,6720 ± 530,30,4760 ± 220,8960 ± 900,2000 ± 470,–
"CC(C)=CCC[C@]1(C)C=Cc2c(O)c3c(c(CC=C(C)C)c2O1)O[C@]12C(=C[C@@H]4C[C@H]1C(C)(C)O[C@@]2(C/C=C(/C)C(=O)O)C4=O)C3=O [GA, gambogic acid, reference compound]",1500 ± 50,340 ± 80,290 ± 40,–,2080 ± 70,2020 ± 20,2500 ± 60,solubility (Water solubility by HPLC; water): < 5 µM
"CC(C(=O)O)c1cccc(C(=O)c2ccccc2)c1 (stereo not drawn) [Ketoprofen, reference compound]",–,–,–,–,–,–,–,permeability coefficient (Pe) [1]: 4.5 ×10⁻⁶ cm/s
"CC(C)NCC(O)COc1cccc2ccccc12 (stereo not drawn) [propranolol, reference compound]",–,–,–,–,–,–,–,permeability coefficient (Pe) [1]: 112.8 ×10⁻⁶ cm/s
CCN(C)C(=O)Oc1cccc2c1C(=O)C1=CC3CC4C(C)(C)OC(CC=C(C)C)(C3=O)C14O2 (stereo not drawn) [Compound 8c],–,–,–,–,–,–,–,IC50 (MDA-MB-231; [8]): 250 ± 120 nM; IC50 (HCT116; [14]): 2750 ± 140 nM; IC50 (A549/taxol; [16]): 660 ± 160 nM; solubility (Water solubility by HPLC; [17]): 30 µM; IC50 (HepG2; [18]): 2560 ± 190 nM; IC50 (A549; [12]): 3050 ± 580 nM; IC50 (A549/cisplatin; [13]): 1480 ± 140 nM
CCOC(=O)COc1cccc2c1C(=O)C1=CC3CC4C(C)(C)OC(CC=C(C)C)(C3=O)C14O2 (stereo not drawn) [Compound 4],5420 ± 570,8130 ± 730,–,10,12700 ± 970,–,–,–
CC(C)=CCC12OC(C)(C)C3CC(C=C4C(=O)c5c(OC(=O)N(C)C)cccc5OC431)C2=O (stereo not drawn) [Compound 8a],–,–,–,–,–,–,–,IC50 (MDA-MB-231; [8]): 170 ± 40 nM; IC50 (HCT116; [14]): 2320 ± 210 nM; IC50 (A549/taxol; [16]): 650 ± 80 nM; solubility (Water solubility by HPLC; [17]): 60 µM; IC50 (HepG2; [18]): 1730 ± 430 nM; IC50 (A549; [12]): 3090 ± 140 nM; IC50 (A549/cisplatin; [13]): 1100 ± 100 nM
CC(C)=CCC12OC(C)(C)C3CC(C=C4C(=O)c5c(cccc5OS(C)(=O)=O)OC431)C2=O (stereo not drawn) [Compound 2],2000 ± 70,2120 ± 140,–,20,1410 ± 60,–,–,–

# More lines, main results first:
IC50 (MDA-MB-231; [2]) [nM],IC50 (HCT116; [3]) [nM],"IC50 (A549/taxol; MTT, read-out: IC50 A549/taxol) [nM]",solubility (Water solubility by HPLC; [4]) [µM],IC50 (HepG2; [5]) [nM],IC50 (A549; [6]) [nM],IC50 (A549/cisplatin; [7]) [nM],Compound,also measured
4400 ± 1500,1060 ± 90,12400 ± 290,40,990 ± 10,8630 ± 190,5680 ± 150,CC(C)=CCC12OC(C)(C)C3CC(C=C4C(=O)c5c(OC(=O)N6CCCC6)cccc5OC431)C2=O (stereo not drawn) [Compound 8e],–
580 ± 40,710 ± 40,530 ± 80,40,2310 ± 180,9810 ± 170,1480 ± 250,CC(C)=CCC12OC(C)(C)C3CC(C=C4C(=O)c5c(OC(=O)N6CCOCC6)cccc5OC431)C2=O (stereo not drawn) [Compound 8d],permeability relative to DDO-6101 and GA [1]: improved the permeability
1000 ± 100,1080 ± 20,820 ± 80,20,1610 ± 180,3380 ± 20,1800 ± 100,CC(C)=CCC12OC(C)(C)C3CC(C=C4C(=O)c5c(OC(=O)N6CCSC6)cccc5OC431)C2=O (stereo not drawn) [Compound 8i],permeability relative to DDO-6101 and GA [1]: improved the permeability
490 ± 50,400 ± 40,240 ± 20,–,280 ± 10,170 ± 20,190 ± 20,"COc1cccc2c1C(=O)c1c(O)c3c(c(O)c1C2=O)C[C@@](O)(C(=O)CO)C[C@@H]3O[C@H]1C[C@H](N)[C@H](O)[C@H](C)O1 [Doxorubicin, reference compound]",–
> 10000,> 10000,–,30,> 10000,–,–,CC(C)=CCC12OC(C)(C)C3CC(C=C4C(=O)c5c(OCC(=O)O)cccc5OC431)C2=O (stereo not drawn) [Compound 5],–
6800 ± 700,3150 ± 220,1100 ± 160,20,1750 ± 280,8450 ± 200,6700 ± 180,CC(C)=CCC12OC(C)(C)C3CC(C=C4C(=O)c5c(OC(=O)N6CC=CC6)cccc5OC431)C2=O (stereo not drawn) [Compound 8h],–
870 ± 160,1020 ± 70,1450 ± 180,50,950 ± 90,2930 ± 20,2980 ± 170,CC(C)=CCC12OC(C)(C)C3CC(C=C4C(=O)c5c(OC(=O)N6CCCCC6)cccc5OC431)C2=O (stereo not drawn) [Compound 8f],–
